Data on 5 compounds can be found in publication PMC11079024, “Identification of a family of species-selective complex I inhibitors as potential anthelmintics” (Nature Communications, 2024).

For data set [1], the system named is H. polygyrus. The experiment in a line: In vivo efficacy study in H. polygyrus mouse model. The conditions noted are these: for # Mice cured/ # Mice investigated: assessed 1 week after dosing; for Median # of living H. polygyrus worms: median (MAD) of adults collected from intestine; for Live worms in intestine (individual mouse) / Live worms in intestine, Median (+/- MAD): worm burden one week after dose; for Live worms in intestine (individual mouse): Mouse 1-4, 200 mg/kg; for Live worms in intestine, Median (+/- MAD): three to four mice. Also noted: species or system NMRI mice infected with H. polygyrus. The procedure:
For in vivo testing, female 3-week old NMRI mice were purchased from Charles River, Germany. The mice were kept in individually ventilated cages (IVC) under environmentally controlled conditions (temperature: 22 °C ± 2 °C; relative humidity: 55% ± 15%; artificial lighting with a circadian cycle of 12 h of light) and had free access to water (municipal tap water supply) and rodent food. Rodents were allowed to acclimatize to the new environment for 1 week before infection. Upon 2 days of arrival, dexamethasone (0.25 mg/L) (Sigma-Aldrich, Switzerland) was added to the normal drinking water for immunosuppression to enable parasite establishment. After 1 week, mice were orally infected with 100 H. polygyrus third larval stage (L3) in 150 µL water.
Four benzimidazole derivatives were tested for in vivo efficacy. The administration of dexamethasone was stopped after 12 days post-infection and 2 days later, the selected four benzimidazole derivatives were administered by oral gavage at a single dose of 200 mg/kg to groups of each four mice. Four mice were left untreated and served as a control group. The derivatives were prepared as a Tween80 (Sigma-Aldrich, Switzerland)/ethanol (Merck, Germany) mixture dissolved in tap water (7:3:90, v/v). After 6–7 days post-dosing, the mice were euthanized with CO2 and dissected. Adult worms were removed from the intestine and counted. The worm burden reduction was calculated by comparing the number of worms found in the control animals versus the treated animals.

The test system of data set [2] is anthelmintic/nematicide-resistant C. elegans mutant strains. In words: microbe, parasite or virus in culture. The conditions noted are these: for LC50: Caenorhabditis elegans; for dose response data: mev-1 (tr355).
The subject of data set [3] is C. elegans. In words: C. elegans chemical screens of RIKEN NPD libraries at 50 μM (hit identification in KCN survival and development/viability assays). It counts as cell-based, Caenorhabditis elegans. The conditions noted are these: screened at 50 μM in triplicate, KCN = KCN survival assay, Dev. & Viability = development/viability assay.
Data set [4] concerns HEK293 cells. The conditions noted are these: for HEK293 viability: individual replicate (Rep).
[5] abbreviates: single oral dose 200 mg/kg, vs untreated control mice.
Setting [6] is: single oral dose of 200 mg/kg, median worm counts versus control mice.
[7] abbreviates: read-out: C. elegans Development & Viability LC50, acr-23(ok2804).
Setting [8] is: read-out: C. elegans Development & Viability LC50, avr-14(ad1302), avr-15(ad1051), glc-1(pk54).
[9] abbreviates: read-out: C. elegans Development & Viability LC50, ben-1(e1880).
Where [10] appears, read: read-out: C. elegans Development & Viability LC50, bre-1(ye4).
Where [11] appears, read: read-out: C. elegans Development & Viability LC50, mev-1(tr355).
Where [12] appears, read: read-out: C. elegans Development & Viability LC50, slo-1(js379).
Setting [13] is: read-out: C. elegans Development & Viability LC50, unc-29(e193).

“And” between values parts separate entries of the source, which are not always exact repeats. Equal values may be shown once. Read-outs that look alike come from different tables or passages of the source.

For `CCn1c(C(C)c2ccc(CC(C)C)cc2)nc2ccccc21` (stereo not shown) [STK951902], in data set [1] (single oral dose 200 mg/kg), the “# Mice cured/ # Mice investigated” value was 0/4 and the “Median # of living H. polygyrus worms” value is 73.0 (1.5). The “% Worm burden reduction” value in data set [1] (setting [5]) is 41.1%. Besides, the “% Worm burden reduction” value in data set [1] (setting [6]) came to 41.1290%. For the same compound, in data set [1] (single oral dose of 200 mg/kg), the “Live worms in intestine (individual mouse)” value is 73 and 52 and 76; the “Live worms in intestine, Median (+/- MAD)” value (shortened to “Live worms … (+/- MAD)”) was 73 (1.5).

In the case of `Clc1ccc(SCCCCn2cnc3ccccc32)cc1` [Compound 7925515], in data set [1] (single oral dose 200 mg/kg), the “# Mice cured/ # Mice investigated” value is reported as 0/4 and the “Median # of living H. polygyrus worms” value is recorded as 100.0 (8.0). Also, the “% Worm burden reduction” value in data set [1] (setting [5]) was found to be 19.4%. The “% Worm burden reduction” value in data set [1] (setting [6]) is 19.3548%. In data set [1] (single oral dose of 200 mg/kg), the “Live worms in intestine (individual mouse)” value was 113 and 100 and 92; the “Live worms … (+/- MAD)” value is recorded as 100 (8.0).

As to `Cc1ccccc1OCCCCn1cnc2ccccc21` [Compound 7732524], the “# Mice cured/ # Mice investigated” value in data set [1] (single oral dose 200 mg/kg) was 0/4. Further, the “% Worm burden reduction” value was found to be 24.6% in data set [1] (setting [5]) and 24.5968% in data set [1] (setting [6]). In addition, the “Median # of living H. polygyrus worms” value in data set [1] (single oral dose 200 mg/kg) is reported as 93.5 (5.0). Also, the “Live worms in intestine (individual mouse)” value in data set [1] (single oral dose of 200 mg/kg) is 95 and 92 and 111 and 85. In addition, in data set [1] (single oral dose of 200 mg/kg), the “Live worms … (+/- MAD)” value is reported as 93.5 (5.0). Moreover, the LC50 (usually the concentration lethal to half of the exposed cells or organisms) in data set [2] (setting [7]) is 50.2 µM; in data set [2] (setting [8]), 46.5 µM; in data set [2] (setting [9]), 50 µM; in data set [2] (setting [10]), 41.2 µM; in data set [2] (setting [11]), 42.9 µM; in data set [2] (setting [12]), 31.4 µM. In data set [2] (setting [13]), the median lethal concentration (LC50) is 37.8 µM. Further, the dose response data in data set [2] (concentration step 1 of 13 (c108)) is 0.998 and 1.000; in data set [2] (concentration step 3 of 13 (c110)), 0.989 and 1.000; in data set [2] (concentration step 4 of 13 (c111)) it was 1.000 and 0.845; in data set [2] (concentration step 5 of 13 (c112)) it was 1.000 and 0.955; in data set [2] (concentration step 6 of 13 (c113)), 1.000 and 0.835; in data set [2] (concentration step 7 of 13 (c114)), 1.000. In addition, the dose response data in data set [2] (concentration step 8 of 13 (c115)) was 1.000 and 0.746.

`Cc1cc(O)c2c(c1)O[C@@]1(C)CC[C@H]3C(C)(C)CCC[C@]34CO[C@@H]2[C@H]41` [Siccanin]: the “Hit Type” value in data set [3] (hit = modified z-score < −3) is listed as “KCN”. Also, the HEK293 viability in data set [4] (dose 0.4 µM) is 0.916; in data set [4] (dose 0.8 µM), 0.884; in data set [4] (dose 3.1 µM), 0.838 and 0.744; in data set [4] (dose 6.3 µM), 0.943 and 0.986; in data set [4] (dose 12.5 µM), 0.861 and 0.895 and 0.672; in data set [4] (dose 25 µM), 0.599 and 0.475 and 0.289. In data set [4] (dose 50 µM), the HEK293 viability is 0.058 and 0.057.

In the case of `CC(C)Cc1ccc(C(C)c2nc3ccccc3n2C)cc1` (stereo not shown) [NPD8790], the “Hit Type” value in data set [3] ([…]) is listed as “KCN”. In data set [4] (HEK293 cells), the “toxicity against mammalian cells” value is recorded as “low toxicity”. For the same compound, the “# Mice cured/ # Mice investigated” value in data set [1] (single oral dose 200 mg/kg) was 0/4. In addition, the “% Worm burden reduction” value was determined as 23.0% in data set [1] (setting [5]) and 22.9839% in data set [1] (setting [6]). Further, the “Median # of living H. polygyrus worms” value in data set [1] (single oral dose 200 mg/kg) is recorded as 95.5 (4.0). In addition, the “Live worms in intestine (individual mouse)” value in data set [1] (single oral dose of 200 mg/kg) is 93 and 52 and 101 and 98. Besides, the “Live worms … (+/- MAD)” value in data set [1] (single oral dose of 200 mg/kg) is on record as 95.5 (4.0). The LC50 was above 1000 µM in data set [2] (setting [7]); above 1000 µM in data set [2] (setting [8]); above 1000 µM in data set [2] (setting [9]); above 1000 µM in data set [2] (setting [10]); above 1000 µM in data set [2] (setting [11]); 177 µM in data set [2] (setting [12]). Also, the LC50 in data set [2] (setting [13]) is above 1000 µM.
